From patent publication US20170044104A1, “NEW PESTICIDAL COMPOUNDS AND USES” (BAYER CROPSCIENCE AG, priority 2013, published 2017) come the findings set out here.

In assay [1] the test system is Haemonchus contortus. The assay can be described thus: Haemonchus contortus (HAEMCO) larval mortality assay. Conditions: 120 h; for mortality at 20 ppm: application rate 20 ppm; for mortality at 20 ppm / mortality at 4 ppm: after 5 days, read-out: activity (percentage of larval mortality); for mortality at 4 ppm: application rate 4 ppm; for Emax at 0.8 ppm / Emax at 4 ppm / Emax at 20 ppm: comparative test, 5 dat, read-out: % Efficacy. Here is the method: (§1) Solvent: dimethyl sulfoxide
(§2) To produce a suitable preparation of active compound, 10 mg of active compound are dissolved in 0.5 ml solvent, and the concentrate is diluted with “Ringer's solution” to the desired concentration.
Approximately 40 larvae of the red stomach worm (Haemonchus contortus) are transferred into a test tube containing compound solution.
After 5 days percentage of larval mortality are recorded. 100% efficacy means all larvae are killed, 0% efficacy means no larvae are killed.

Assay [2] concerns Cooperia curticei. The assay can be described thus: Cooperia curticei (COOPCU) larval mortality assay. Conditions: 120 h, after 5 days, read-out: activity (percentage of larval mortality); for mortality at 20 ppm: application rate 20 ppm; for mortality at 4 ppm: application rate 4 ppm. How it is done: as §1, §2
Approximately 40 nematode larvae (Cooperia curticei) are transferred into a test tube containing the compound solution.
After 5 days percentage of larval mortality is recorded. 100% efficacy means all larvae are killed; 0% efficacy means no larvae are killed.

SMILES strings stand for the structures.

The term mortality denotes the percentage killed. Consider `O=C(NCCc1cccc(-c2cncc(F)c2)c1)c1ccccc1C(F)(F)F` [Example 1-3], for which the mortality at 20 ppm in assay [1] was found to be 90%.
Take `Cc1nc(Cl)ccc1-c1cccc(CCNC(=O)c2ccccc2C(F)(F)F)c1` [Example 1-5]: the mortality at 20 ppm in assay [1] was 90%.
The same measure, in the same setting: in the case of `Cc1cc(-c2ccc(CCNC(=O)c3ccccc3C(F)(F)F)cc2)ccn1` [Example 1-11] it was 80%.
As for `O=C(NCCc1ccc(-c2ccc(C(F)(F)F)nc2)cc1)c1ccccc1C(F)(F)F` [Example 1-12], the mortality at 20 ppm in assay [1] stood at 90%; in assay [2], 100%.
Turning to `O=C(NCCc1ccc(-c2ccncc2)cc1)c1ccccc1C(F)(F)F` [Example 1-13], the mortality at 20 ppm in assay [2] was 80%.
In the case of `O=C(NCCc1ccc(-c2cncc(F)c2)cc1)c1ccccc1C(F)(F)F` [Example 1-14], the mortality at 20 ppm in assay [1] was found to be 90%; in assay [2] it was 100%.
For `O=C(NCCc1ccc(-c2ccc(Cl)nc2)cc1)c1ccccc1C(F)(F)F` [Example 1-15], the mortality at 4 ppm in assay [1] is 90%. Moreover, the mortality at 20 ppm in assay [2] was determined as 100%.
As to `O=C(NCCc1ccc(-c2ccc(OCC(F)(F)F)nc2)cc1)c1cccnc1C(F)(F)F` [Example 1-18], in assay [2], the mortality at 20 ppm was determined as 100%.
As for `Cc1ncccc1-c1ccc(CCNC(=O)c2cccnc2C(F)(F)F)cc1` [Example 1-21], the mortality at 20 ppm in assay [2] is 100%.
Regarding `Cc1occc1-c1ccc(CCNC(=O)c2cccnc2C(F)(F)F)cc1` [Example 1-23], the mortality at 20 ppm in assay [2] is 80%.
In the case of `O=C(NCCc1ccc(-c2ccnc(Cl)c2)cc1)c1cccnc1C(F)(F)F` [Example 1-26], the mortality at 20 ppm in assay [2] came out at 90%.
Take `O=C(NCCc1ccc(-c2ccnc(F)c2)cc1)c1cccnc1C(F)(F)F` [Example 1-27]: the mortality at 20 ppm in assay [1] and in assay [2] was 80% throughout.
In the case of `O=C(NCCc1ccc(-c2cnccc2Cl)cc1Cl)c1ccccc1C(F)(F)F` [Example 1-31], the mortality at 20 ppm in assay [2] stood at 100%.
As to `O=C(NCCc1ccc(-c2ccc(OCC(F)(F)F)nc2)cc1Cl)c1ccccc1C(F)(F)F` [Example 1-32], the mortality at 20 ppm in assay [1] turned out to be 90%; in assay [2], 100%.
Take `O=C(NCCc1ccc(-c2ccnc(F)c2)cc1Cl)c1ccccc1C(F)(F)F` [Example 1-34]: in assay [2], the mortality at 20 ppm turned out to be 100%.
With `O=C(NCCc1ccc(-c2ccoc2)cc1Cl)c1ccccc1C(F)(F)F` [Example 1-35], in assay [1], the mortality at 20 ppm was found to be 100%, the Emax at 0.8 ppm was found to be 80%, the Emax at 4 ppm amounted to 90% and the Emax at 20 ppm was 100%. Further, in assay [2], the mortality at 20 ppm came out at 100%.
For `O=C(NCCc1ccc(-c2ccncc2)cc1Cl)c1ccccc1C(F)(F)F` [Example 1-36], the mortality at 20 ppm in assay [2] turned out to be 80%.
Turning to `O=C(NCCc1ccc(-c2ccc(C(F)(F)F)nc2)cc1Cl)c1ccccc1C(F)(F)F` [Example 1-38], in assay [1], the mortality at 20 ppm was found to be 100%, the Emax at 0.8 ppm stood at 100%, the Emax at 4 ppm was found to be 100% and the Emax at 20 ppm amounted to 100%. Moreover, in assay [2], the mortality at 20 ppm is 100%.
On to `Cc1occc1-c1ccc(CCNC(=O)c2ccccc2C(F)(F)F)c(Cl)c1` [Example 1-40], for which the mortality at 20 ppm in assay [1] and in assay [2] was 100% in each case.
On to `O=C(NCCc1ccc(-c2cccc(Cl)n2)cc1Cl)c1ccccc1C(F)(F)F` [Example 1-41], for which the mortality at 20 ppm worked out at 90% in assay [1] and 100% in assay [2].
For `CC(C)Oc1ccc(-c2ccc(CCNC(=O)c3ccccc3C(F)(F)F)c(Cl)c2)cn1` [Example 1-43], in assay [1], the mortality at 20 ppm was 100%, the Emax at 0.8 ppm was found to be 100%, the Emax at 4 ppm stood at 100% and the Emax at 20 ppm was found to be 100%. Also, the mortality at 20 ppm in assay [2] was determined as 100%.
As for `O=C(NCCc1ccc(-c2cc(Cl)nc(Cl)c2)cc1Cl)c1ccccc1C(F)(F)F` [Example 1-46], in assay [2], the mortality at 20 ppm was 100%.
With `Cc1nc(C)c(-c2ccc(CCNC(=O)c3ccccc3C(F)(F)F)c(Cl)c2)s1` [Example 1-50], the mortality at 20 ppm in assay [2] stood at 90%.
Same read-out and setting: in the case of `O=C(NCCc1ccc(-c2ccnc(F)c2)cc1)c1ccccc1C(F)(F)F` [Example 1-51] it was 100%.
Consider `O=C(NCCc1ccc(-c2ccoc2)cc1)c1ccccc1C(F)(F)F` [Example 1-52], for which the mortality at 20 ppm in assay [2] came to 100%.
Regarding `O=C(NCCc1ccc(-c2cccc(Cl)n2)cc1)c1ccccc1C(F)(F)F` [Example 1-55], the mortality at 20 ppm in assay [2] is 100%.
Consider `O=C(NCCc1ccc(-c2cccnc2Cl)cc1)c1ccccc1C(F)(F)F` [Example 1-56], for which the mortality at 20 ppm in assay [1] and in assay [2] was 80% throughout.
In the case of `O=C(NCCc1ccc(-c2cccnc2)cc1)c1ccccc1C(F)(F)F` [Example 1-57], the figures for the mortality at 20 ppm in assay [1] and in assay [2] were 80% and 100%, respectively.
For the compound `O=C(NCCc1ccc(-c2ccc(OCC(F)(F)F)nc2)cc1)c1ccccc1C(F)(F)F` [Example 1-58], the mortality at 20 ppm in assay [1] is 80%; in assay [2] it was 100%.
For `Cc1occc1-c1ccc(CCNC(=O)c2ccccc2C(F)(F)F)cc1` [Example 1-59], in assay [2], the mortality at 20 ppm is 100%.
Take `Cn1cc(-c2ccc(CCNC(=O)c3ccccc3C(F)(F)F)cc2)cn1` [Example 1-60]: the mortality at 20 ppm in assay [1] came out at 80%; in assay [2] it was 100%.
Turning to `O=C(NCCc1ccc(-c2ccc(F)nc2)cc1)c1ccccc1C(F)(F)F` [Example 1-62], in assay [1], the mortality at 20 ppm came to 100%, the Emax at 0.8 ppm was 80%, the Emax at 4 ppm was 90% and the Emax at 20 ppm is 100%. In addition, the mortality at 20 ppm in assay [2] came out at 100%.
For the compound `O=C(NCCc1ccc(-c2ccnc(Cl)c2)cc1)c1ccccc1C(F)(F)F` [Example 1-64], the mortality at 20 ppm in assay [1] is 80%; in assay [2] it was 100%.
`O=C(NCCc1ccc(-c2ccnc(Cl)c2)cc1Cl)c1ccccc1C(F)(F)F` [Example 1-65]: the mortality at 20 ppm in assay [2] came out at 90%.
As for `O=C(NCC(F)(F)c1ccc(-c2ccc(Cl)nc2)cc1Cl)c1cccnc1C(F)(F)F` [Example 1-67], the mortality at 20 ppm in assay [1] is 90%. Besides, the mortality at 4 ppm in assay [2] was 90%.
Consider `O=C(NCC(F)c1ccc(-c2ccc(C(F)(F)F)nc2)cc1Cl)c1cccnc1C(F)(F)F` (centres unmarked) [Example 1-71], for which the mortality at 20 ppm in assay [1] is 90%; in assay [2], 100%.
Consider `O=C(NCC(F)c1ccc(-c2ccc(C(F)(F)F)nc2)cc1Cl)c1nccnc1C(F)(F)F` (centres unmarked) [Example 1-72], for which the mortality at 20 ppm in assay [1] and in assay [2] was 100% in each case.
`O=C(NCC(F)c1ccc(-c2cccnc2Cl)cc1Cl)c1nccnc1C(F)(F)F` (centres unmarked) [Example 1-79]: the mortality at 20 ppm in assay [1] and in assay [2] was 100% in each case.
In the case of `O=C(NCC(F)c1ccc(-c2cncc(Cl)c2)cc1Cl)c1cccnc1C(F)(F)F` (centres unmarked) [Example 1-83], the mortality at 20 ppm in assay [1] and in assay [2] was 100% throughout.
Regarding `CC(C)Oc1ccc(-c2ccc(C(F)(F)CNC(=O)c3ccccc3C(F)(F)F)c(Cl)c2)cn1` [Example 1-91], the mortality at 20 ppm in assay [2] was 100%.
For the compound `CC(F)(CNC(=O)c1nccnc1C(F)(F)F)c1ccc(-c2cncc(F)c2)cc1Cl` (centres unmarked) [Example 1-102], the mortality at 20 ppm in assay [1] and in assay [2] was 100% each time.
Turning to `CC(F)(CNC(=O)c1c(F)cccc1F)c1ccc(-c2cncc(F)c2)cc1Cl` (centres unmarked) [Example 1-103], in assay [1], the mortality at 20 ppm was 100%.
Take `O=C(NCC(F)(F)c1ccc(-c2ccc(C(F)(F)F)nc2)cc1F)c1ccccc1C(F)(F)F` [Example 1-105]: the mortality at 20 ppm in assay [2] stood at 90%.
With `COc1ccc(-c2ccc(C(F)(F)CNC(=O)c3ccccc3C(F)(F)F)c(F)c2)cn1` [Example 1-110], the mortality at 20 ppm in assay [1] was 90%; in assay [2] it was 100%.
Turning to `O=C(NCC(F)(F)c1ccc(-c2ccc(Cl)nc2)cc1F)c1ccccc1C(F)(F)F` [Example 1-114], the figures for the mortality at 20 ppm in assay [1] and in assay [2] were 80% and 100%, respectively.
As for `COc1cncc(-c2ccc(C(F)(F)CNC(=O)c3ccccc3C(F)(F)F)c(C(F)(F)F)c2)c1` [Example 1-121], the mortality at 20 ppm in assay [1] and in assay [2] was 80% throughout.
With `O=C(NCC(F)(F)c1ccc(-c2cncc(F)c2)cc1C(F)(F)F)c1ccccc1C(F)(F)F` [Example 1-122], the mortality at 20 ppm in assay [1] and in assay [2] was 100% in each case.
In the case of `O=C(NCC(F)(F)c1ccc(-c2ccc(C(F)(F)F)nc2)cc1C(F)(F)F)c1ccccc1C(F)(F)F` [Example 1-124], the mortality at 4 ppm in assay [1] is 90%. Further, the mortality at 20 ppm in assay [2] turned out to be 90%.
For the compound `CN(C)c1ccc(-c2ccc(C(F)(F)CNC(=O)c3ccccc3C(F)(F)F)c(C(F)(F)F)c2)cn1` [Example 1-125], the mortality at 20 ppm in assay [2] was determined as 80%.
Regarding `COc1ccc(-c2ccc(C(F)(F)CNC(=O)c3ccccc3C(F)(F)F)c(C(F)(F)F)c2)cn1` [Example 1-127], the mortality at 20 ppm in assay [1] and in assay [2] was 100% throughout.
Consider `CN(C)c1ncc(-c2ccc(C(F)(F)CNC(=O)c3ccccc3C(F)(F)F)c(F)c2)cn1` [Example 1-146], for which, in assay [2], the mortality at 20 ppm stood at 100%.
For the compound `CN(C)c1ncc(-c2ccc(C(F)(F)CNC(=O)c3ccccc3C(F)(F)F)c(C(F)(F)F)c2)cn1` [Example 1-149], the mortality at 4 ppm in assay [2] came to 90%.
